# Measurements published in US20020022742A1, “Salt forms of an HIV protease inhibitor” (priority 2000, published 2002).
# Tests used:
# [1] = molecular target: HIV protease (Human immunodeficiency virus type 1 group M subtype B, UniProt P04585); test: HIV protease inhibition (test only mentioned); assay type: biochemical; details: stated in words only, no value given
# [2] = system: HIV-1 (RF); test: HIV RNA assay, microplate based compound evaluation in HIV-1 infected MT-2 cells; assay type: cell-based; details: Human immunodeficiency virus 1, MT2, 72 h; HIV-1 (RF) infected MT-2 cells, 3 days of culture; virus dilutions selected to result in this value (standardization of inoculum); read-out: IC90 (concentration of compound required to reduce the HIV RNA level by 90%)
Structure (SMILES),HIV protease inhibitory activity [1],IC90 [2]
CC(C)CN(C[C@@H](O)[C@H](Cc1ccccc1)NC(=O)[C@@H](NC(=O)CNCc1cccc(F)c1)C(C)(C)C)S(=O)(=O)c1ccc(N)cc1 [Compound A],potent HIV protease inhibitor,–
"Nc1ccn([C@H]2CC[C@@H](CO)O2)c(=O)n1 [ddC, dideoxycytidine]",–,0.2 µg/mL
